Data from US20120308662A1, “PARTICULATE PREPARATION AND METHOD FOR PRODUCING THE SAME” (NITTO DENKO CORPORATION, priority 2011, published 2012).
Counter-ions that a name gives are not always drawn.

Assays:
[1] = Dissolution test, flow-through cell method of the Japanese Pharmacopoeia; format: physicochemical; settings: Tamsulosin hydrochloride
Description: According to the flow-through cell method disclosed in the Japanese Pharmacopoeia, the test was carried out using a dissolution medium which was one of 1st fluid for dissolution test (pH 1.2), 2nd fluid for dissolution test (pH 6.8), and a disodium hydrogen phosphate-citric acid buffer solution at pH 7.2 (obtained by dissolving 7.1 g of dehydrated disodium hydrogen phosphate in water and adjusting the total volume to be 1000 mL, and adjusting the pH to 7.2 by adding, to the obtained solution, a solution obtained by dissolving 5.3 g of citric acid monohydrate in water and adjusting the total volume to be 1000 mL).
Swinnex Filter Holder 25 mm (from Nippon Millipore) was used for a cell. In order to prevent flowing out of the particulate formulations, a support screen (25 mm stainless, from Nippon Millipore), Durapore Membrane Filters (PVDF, Hydrophilic, 0.45 μm, 25 mm, from Nippon Millipore), and a silicon gasket 25 mm (Swinnex Filter Holder from Nippon Millipore) were successively installed. Masterflex L/S (Model 7524-50 from Cole Parmer Instrument COMPANY) was used as a pump and a dissolution medium was transported at 2.5 mL/min. Besides that, the test was carried out according to the flow-through cell method disclosed in the Japanese Pharmacopeia. An eluate was sampled 10, 30, 60 minutes after starting the test and the dissolution amount of the drug in the eluate was measured by high performance liquid chromatography (HPLC) and the dissolution rate to the initial drug content was calculated.

[2] = Measurement of average particle diameter of particulate formulation (automatic particle image analyzer); format: physicochemical; settings: particle diameter of 50% by volume; 20000 or more particles
Description: Herein, the “average particle diameter” means the particle diameter of 50% by volume of the entire particles and may be measured by using an “automatic particle image analyzer” (a particle image analyzer is an apparatus for measuring the particle diameter from images of photographed particles) and a “laser diffraction particle size distribution analyzer” (or a “laser diffraction/scattering particle size distribution analyzer”).
The average particle diameter was measured using 20000 or more particles with an automatic particle image analyzer (Morphologi (registered trade name)-G3 from Malvern Instruments).

- Elution rate ratio between pH 6.8 and pH 1.2 ([1]; 60 min): 2.4
- Drug dissolution under a condition of pH 1.2, in words ([1]; pH 1.2): high drug dissolution rate
- Pharmaceutical elution rate 60 minutes after starting the test(%) ([1]; pH 1.2, 60 min): 36.7%
- Drug dissolution under a condition of pH 6.8, in words ([1]; pH 6.8): high drug dissolution rate
- Pharmaceutical elution rate 60 minutes after starting the test(%) ([1]; pH 6.8, 60 min): 88.4%
- Average particle diameter of particulate formulations [2]: 2.7 μm
Structure (SMILES): CCOc1ccccc1OCCN[C@H](C)Cc1ccc(OC)c(S(N)(=O)=O)c1 [Comparative Example 9, Tamsulosin hydrochloride]
